Results published in ChEMBL document CHEMBL1201862, “PubChem BioAssay data set” (2004).
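Briefly, cells in 96-well plates were exposed to five compound concentrations for 48 h, and endpoints were estimated by linear interpolation. GI50 is the concentration that inhibits growth by half.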 Calls of active or inactive are those of the source. No stated cut-off is given here; in the data, active = GI50 up to about 1.1 µM and inactive = higher.

What was measured:
Assay in all cases: inhibition of tumour cell growth, NCI panel, 48 h
IGROV-1 = system: IGROV-1
U-251 = system: U-251
BT-549 = system: BT-549
COLO 205 = system: COLO 205
M14 = system: M14
HT-29 = system: HT-29
786-0 = system: 786-0
EKVX = system: EKVX
ACHN = system: ACHN
SK-MEL-5 = system: SK-MEL-5
OVCAR-5 = system: OVCAR-5
SK-MEL-2 = system: SK-MEL-2
T47D = system: T47D
MDA-MB-231 = system: MDA-MB-231
PC-3 = system: PC-3
SK-OV-3 = system: SK-OV-3
LOX IMVI = system: LOX IMVI
MDA-N = system: MDA-N
SNB-19 = system: SNB-19
SF-295 = system: SF-295

Measured: GI50

Clc1ccc(Cc2nc3cc(Cl)ccc3o2)cc1
inactive: IGROV-1 23.8 µM | U-251 27.7 µM | BT-549 27.9 µM | COLO 205 29.8 µM | M14 34.8 µM | HT-29 26.8 µM | 786-0 34.4 µM | EKVX 24.8 µM | ACHN 35.6 µM | SK-MEL-5 15.3 µM | OVCAR-5 39.4 µM | SK-MEL-2 15.7 µM | T47D 35.8 µM | MDA-MB-231 31.7 µM | PC-3 32.4 µM | SK-OV-3 23 µM | LOX IMVI 14 µM | MDA-N 36.1 µM | SNB-19 39.6 µM | SF-295 22.8 µM

CN1CCC2(CC1)C(=O)N(NC(N)=O)C(=O)C2c1ccccc1 (stereo not given)
inactive: IGROV-1 > 100 µM | U-251 > 100 µM | BT-549 > 100 µM | COLO 205 > 100 µM | M14 > 100 µM | HT-29 > 100 µM | 786-0 > 100 µM | EKVX > 100 µM | ACHN > 100 µM | SK-MEL-5 > 100 µM | OVCAR-5 > 100 µM | SK-MEL-2 > 100 µM | T47D > 100 µM | MDA-MB-231 > 100 µM | PC-3 > 100 µM | SK-OV-3 > 100 µM | LOX IMVI > 100 µM | MDA-N > 100 µM | SNB-19 > 100 µM | SF-295 > 100 µM

O=C1c2cc([N+](=O)[O-])cnc2S(=O)(=O)N1c1ccc(Br)cc1
inactive: IGROV-1 > 100 µM | U-251 > 100 µM | BT-549 > 100 µM | COLO 205 > 100 µM | M14 > 100 µM | HT-29 > 100 µM | 786-0 > 100 µM | EKVX > 100 µM | ACHN > 100 µM | SK-MEL-5 > 100 µM | OVCAR-5 > 100 µM | SK-MEL-2 > 100 µM | T47D > 100 µM | MDA-MB-231 > 100 µM | PC-3 > 100 µM | SK-OV-3 > 100 µM | LOX IMVI > 100 µM | MDA-N > 100 µM | SNB-19 > 100 µM | SF-295 > 100 µM

COC1CC(OC2CCC3(C)C(CCC45CCC(C6=CC(=O)OC6)C(C)(CCC43)C5=O)C2)OC(C)C1O (stereo not given)
inactive: IGROV-1 38.7 µM | U-251 46.2 µM | BT-549 20.8 µM | COLO 205 40.5 µM | M14 > 100 µM | HT-29 39.5 µM | 786-0 23.6 µM | EKVX 32.4 µM | ACHN 22.1 µM | SK-MEL-5 18.1 µM | OVCAR-5 40.8 µM | SK-MEL-2 31.3 µM | T47D 30.8 µM | MDA-MB-231 > 100 µM | PC-3 39.3 µM | SK-OV-3 46.1 µM | LOX IMVI 38.4 µM | MDA-N > 100 µM | SNB-19 20.3 µM | SF-295 33.9 µM

CCCC(=O)NC(Nc1ccc(S(=O)(=O)Nc2cc(C)on2)cc1)(C(=O)OCC)C(F)(F)F (stereo not given)
inactive: IGROV-1 > 100 µM | U-251 > 100 µM | BT-549 > 100 µM | COLO 205 > 100 µM | M14 > 100 µM | HT-29 > 100 µM | 786-0 > 100 µM | EKVX > 100 µM | ACHN > 100 µM | SK-MEL-5 > 100 µM | OVCAR-5 > 100 µM | SK-MEL-2 > 100 µM | T47D > 100 µM | MDA-MB-231 > 100 µM | PC-3 > 100 µM | SK-OV-3 > 100 µM | LOX IMVI > 100 µM | MDA-N > 100 µM | SNB-19 > 100 µM | SF-295 > 100 µM

O=C1CS(=O)(=O)C(c2cccc(Oc3ccccc3)c2)N1c1cccc(Cl)c1 (stereo not given)
inactive: IGROV-1 19.1 µM | U-251 21.2 µM | BT-549 29.9 µM | COLO 205 18.8 µM | M14 26.7 µM | HT-29 28.6 µM | 786-0 19.8 µM | EKVX 17.6 µM | ACHN 24.3 µM | SK-MEL-5 15.7 µM | OVCAR-5 55.1 µM | SK-MEL-2 16.3 µM | T47D 16.9 µM | MDA-MB-231 29.1 µM | PC-3 20.6 µM | SK-OV-3 40.6 µM | LOX IMVI 15.7 µM | MDA-N 16.6 µM | SNB-19 43.4 µM | SF-295 33.4 µM
